The values below come from patent US5202349A, “Substituted phenylacetylenes, pharmaceutical compositions containing these compounds and processes for the preparation of these compounds and compositions” (Gruenenthal GmbH, priority 1990, dated 1993).

The target in one assay is T1, cyclooxygenase (Ovis aries, UniProt P05979).
T1 construct: suspension of sheep seminal vesicle microsomes; from tissue; host or cells: sheep seminal vesicle microsomes
T1 sequence (P05979 25-600): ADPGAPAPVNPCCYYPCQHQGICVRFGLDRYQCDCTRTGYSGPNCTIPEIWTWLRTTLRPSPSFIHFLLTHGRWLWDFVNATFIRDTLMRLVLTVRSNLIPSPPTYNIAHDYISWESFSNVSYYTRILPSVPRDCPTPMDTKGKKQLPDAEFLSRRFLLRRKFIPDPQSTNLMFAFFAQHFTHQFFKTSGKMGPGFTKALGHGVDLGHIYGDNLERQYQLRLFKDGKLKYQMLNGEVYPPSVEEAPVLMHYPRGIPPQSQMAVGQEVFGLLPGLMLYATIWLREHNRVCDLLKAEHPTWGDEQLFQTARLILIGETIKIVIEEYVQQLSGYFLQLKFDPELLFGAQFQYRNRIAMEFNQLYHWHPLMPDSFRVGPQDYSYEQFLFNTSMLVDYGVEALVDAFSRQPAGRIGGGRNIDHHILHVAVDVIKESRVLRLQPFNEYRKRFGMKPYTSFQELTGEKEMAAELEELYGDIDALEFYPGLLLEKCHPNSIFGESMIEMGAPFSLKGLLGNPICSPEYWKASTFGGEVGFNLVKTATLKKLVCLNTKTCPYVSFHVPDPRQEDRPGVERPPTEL
The assay is described as follows: Inhibition of cyclooxygenase in sheep seminal vesicle microsomes ([14C]-arachidonic acid, TLC). The assay is classed as biochemical. The settings on record: pH 7.0, read-out: IC50 for inhibition of cyclooxygenase (B). How it is done:
The effect of the test compounds on the activity of cyclooxygenase was tested using a suspension of sheep seminal vesicle microsomes in 50 mM potassium phosphate buffer of pH 7.0 which was incubated with the solvent only (as control) or with the test compound and [^14 C]-arachidonic acid. The "IC50 -values (B)" (i.e. the concentration of the test compound which causes an 50%-inhibition of the cyclooxygenase) were determined by thin layer chromatography and by means of a TLC-Linear-Analyzer.

A further assay deals with T2, 5-lipoxygenase (Rattus norvegicus, UniProt P12527).
T2 construct: endogenous in cells; host or cells: rat basophilic leukemia cells
T2 sequence (P12527 1-673): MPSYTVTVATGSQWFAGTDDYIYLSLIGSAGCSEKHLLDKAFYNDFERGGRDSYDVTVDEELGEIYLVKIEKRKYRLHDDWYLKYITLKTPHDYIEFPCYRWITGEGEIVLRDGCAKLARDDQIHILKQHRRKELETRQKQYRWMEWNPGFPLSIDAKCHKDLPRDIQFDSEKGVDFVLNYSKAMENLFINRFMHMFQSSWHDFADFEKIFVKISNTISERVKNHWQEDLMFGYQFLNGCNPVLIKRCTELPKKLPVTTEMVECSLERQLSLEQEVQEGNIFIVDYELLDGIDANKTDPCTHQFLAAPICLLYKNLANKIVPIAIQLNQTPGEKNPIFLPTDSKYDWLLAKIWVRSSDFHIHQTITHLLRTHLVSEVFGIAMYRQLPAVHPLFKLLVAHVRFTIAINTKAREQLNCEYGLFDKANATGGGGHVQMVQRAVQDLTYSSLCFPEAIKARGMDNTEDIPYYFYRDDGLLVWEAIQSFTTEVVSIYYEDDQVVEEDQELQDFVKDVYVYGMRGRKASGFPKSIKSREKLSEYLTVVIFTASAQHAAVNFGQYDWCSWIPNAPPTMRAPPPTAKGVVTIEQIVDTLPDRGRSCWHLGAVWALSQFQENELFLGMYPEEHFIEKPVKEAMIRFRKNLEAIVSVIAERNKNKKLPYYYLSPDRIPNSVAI
Nature of the assay: Inhibition of 5-lipoxygenase in rat basophilic leukemia cells ([14C]-arachidonic acid, TLC). It counts as cell-based. The settings on record: for IC50: rat basophilic leukemia cells, standardized to nordihydroguaiaretic acid; for Quotient (IC50 cyclooxygenase (B) / 5-lipoxygenase (A)): selectivity. How it is done:
To 1 ml each of this suspension there was added indomethacin (10 μM) and calcium chlorid (2 mM) and then the mixture was incubated in presence or absence of a test compound for 3 minutes and thereafter with 20 μM of [^14 C]-arachidonic acid and 20 μM of the calcium ionophore A 23 187 for 10 minutes. The reaction was stopped by adding 20 μl of glacial acetic acid and then the mixture was extracted with ethyl acetate to isolate the metabolites of arachidonic acid formed by the enzymatic action of 5-lipoxygenase. These were separated by thin layer chromatography using a solvent mixture known to be suitable for leukotriene analysis [c.f. Jakschik et al., Biochem. Biophys. Res. Commun. 102, 624 (1981)]. The distribution of the radioactivity to the different metabolites was measured using a TLC Linear Analyzer. By bringing into relationship the percentages of the amount of the products formed under the action of 5-lipoxygenase (5-HETE, isomers of LTB4) in the controls (tests performed in absence of test compounds) and in the presence of test compounds of formula I in different concentrations the "IC50 -value" (i.e. the concentration of the test compound which causes an 50%-inhibition of the 5-lipoxygenase) is determined. For standardization these values then were brought into relationship to the IC50 -values determined in the same manner for the standard compound nordihydroguaiaretic acid.

The subject of assay [1] is ex vivo iLTB4-formation (5-lipoxygenase activity) in whole blood of rats. Nature of the assay: Inhibition of ex vivo iLTB4-formation in rat whole blood after oral administration. The settings on record: for inhibition in vivo at 21.5 mg/kg: Rattus norvegicus, 21.5 mg/kg oral, blood taken 1 hour later. The arrangement: species or system male rats (Wistar strain). How it is done: The bioavailability of the compounds of formula I after oral administration was characterized by means of an ex vivo biochemical assessment method described by Tateson et al. in Brit. Pharmacol., 94, 528 (1988).
Compounds of formula I were orally administered to male rats (Wistar strain). 1 hour later the rats were bled by heart puncture in letal CO2 -narcosis. The 5-lipoxygenase reaction was triggered by the addition of the calcium-ionophor A23187 to an end concentration of […] to aliquots of rat whole blood and subsequent incubation for 30 minutes at 37° C. in a water bath. At the end of the incubation the samples were centrifuged to collect the cell free plasma. The concentration of the immunoreactive LTB4 (iLTB4 ng/ml) in each plasma sample was determined by a LTB4 -radioimmunoassay (^3 H-LTB4 -RIA, Amersham) by means of a LTB4 -standard curve in diluted rat plasma. For calculation of the percent inhibition of ex vivo iLTB4 -formation in whole blood of rats treated with the compounds of formula I rats treated with appropiate vehicle solution were included in all experiments, aliquots of their blood were run in parallel and were processed in the same way as described. The mean iLTB4 -formation per ml plasma of these vehicle treated control rats served as 100 percent value of normal control 5-lipoxygenase activity. The percent inhibition of the ex vivo iLTB4 -formation after oral administration of compounds of formula I was calculated as follows: 100 minus 100 times the quotient of the mean iLTB4 concentration per ml plasma of the rats treated with compounds of formula I […] and the mean iLTB4 concentration per ml plasma of the control rats.

The subject of assay [2] is endotoxin/galactosamine-induced hepatitis, increase of liver specific enzymes in the serum. The assay is described as follows: Endotoxin/galactosamine-induced hepatitis in mice (septic shock model). The assay is classed as in vivo. The conditions noted are these: 10 mg/kg i.p. for each of five applications, 8 hours after endotoxin. How it is done: As a test model to evaluate the effects of test compounds in septic shock the endotoxin/galactosamine-induced hepatitis in mice has been used. […] The intraperitoneal application of 5-lipoxygenase inhibitors 30 minutes before, simultaneously with and 2, 4 and 6 hours after the application of endotoxin inhibitis the hepatitis-induced increase of the serum activities of these enzymes. On administration of compounds of the formula I in doses of 10 mg/kg for each of the five applications the following percentual inhibitions of the increase of the enzymes GPT and SDH were achieved (the increase of enzymatic activities in control animals was set at 100%): […]

For another assay, the system named is bronchoconstriction. Nature of the assay: Antiasthmatic activity: ovalbumin-induced bronchoconstriction in passively sensitized guinea pigs (Konzett-Rössler). The conditions noted are these: 100 mg/kg oral, 0.2 mg/kg i.v. ovalbumin challenge, 10 minutes. It counts as in vivo. How it is done:
The antiasthmatic activity of compounds of formula I was tested in narcotised and ventilated guinea pigs. For the induction of an asthmatic reaction, the animals were passively sensitized by a single intraperitoneal injection of anti-ovalbumin serum. 48 hours afterwards the asthmatic reaction was elicited by intravenous challenge with 0.2 mg/kg ovalbumin. The immediately resulting bronchoconstriction was measured as increase in overflow according to the Konzett-Rbssler method for a period of 10 minutes. Effects caused by histamine, serotonin and sympathic counterreaction were eliminated by intravenous pretreatment with 2.15 mg/kg mepyramine, 46.4 μg/kg propranolol, 4.64 mg/kg atropin and 1 mg/kg methysergide, all given 5 minutes before challenge.
After oral administration of the product of Example 5a or of the product of Example 9, in doses of 100 mg/kg each, the bronchoconstriction was inhibited by 54% or by 67%, respectively.

A value given as a limit tells only on which side of the number the result lay.

Broadly, the IC50 is the midpoint of a concentration-inhibition curve. Broadly, the inhibition in vivo is the relative decrease from the control value, in per cent. Low values mean a weak effect, high ones a strong effect. With `COc1cccc(C#Cc2cccc(C(C)N(O)C(C)=O)c2)c1` (stereo not drawn) [Example 5c, N-{1-[3-(3-Methoxy-phenylethynyl)-phenyl]-ethyl}-acetohydroxamic acid], the IC50 at cyclooxygenase is above 500000 nM. Also, at 5-lipoxygenase, half-maximal inhibition (IC50) required 580 nM and the “Quotient (IC50 cyclooxygenase (B) / 5-lipoxygenase (A))” value is above 862. The molecule also came in with an inhibition in vivo at 21.5 mg/kg in assay [1] of 88%.
Turning to `COc1ccc(C#Cc2cccc(CN(O)C(C)=O)c2)cc1` [Example 4, N-[3-(4-Methoxy-phenylethynyl)-benzyl]-acetohydroxamic acid], in assay [2], the “Inhibition of increase of GPT” value was found to be 87% and the “Inhibition of increase of SDH” value turned out to be 81%.
For `CC(c1ccc(C#Cc2cccs2)cc1)N(O)C(N)=O` (stereo not drawn) [Example 15, N-Hydroxy-N-{1-[4-(thien-2-yl-ethynyl)-phenyl]-ethyl}-urea], at cyclooxygenase, the half-inhibitory concentration (IC50) was 500000 nM. On 5-lipoxygenase, it took 410 nM to reach half-maximal inhibition (IC50) and the “Quotient (IC50 cyclooxygenase (B) / 5-lipoxygenase (A))” value amounted to 1220. This molecule showed an inhibition in vivo at 21.5 mg/kg in assay [1] of 77%.
For `CC(=O)N(O)Cc1cccc(C#Cc2ccc3ccccc3c2)c1` [Example 1, N-[3-(Naphth-2-yl-ethynyl)-benzyl]-acetohydroxamic acid], in assay [2], the “Inhibition of increase of GPT” value stood at 47% and the “Inhibition of increase of SDH” value amounted to 58%. The IC50 on cyclooxygenase was above 500000 nM. Moreover, at 5-lipoxygenase, the midpoint of inhibition, the IC50, lay at 670 nM and the “Quotient (IC50 cyclooxygenase (B) / 5-lipoxygenase (A))” value is above 746.
As to `NC(=O)N(O)Cc1cccc(C#Cc2cccc3ccccc23)c1` [Example 7, N-Hydroxy-N-[-3-(naphth-1-yl-ethynyl)-benzyl]-urea], the IC50 at cyclooxygenase is above 500000 nM. Besides, on 5-lipoxygenase, half-maximal inhibition (IC50) required 650 nM and the “Quotient (IC50 cyclooxygenase (B) / 5-lipoxygenase (A))” value was above 769. Besides, the inhibition in vivo at 21.5 mg/kg in assay [1] worked out at 90%.
For `CC(c1ccc(C#Cc2ccsc2)cc1)N(O)C(N)=O` (stereo not drawn) [Example 16b, N-Hydroxy-N-{1-[4-(thien-3-yl-ethynyl)-phenyl]-ethyl}-urea], in that order: 500000 nM, 290 nM, 1724 and 91%.
Consider `COc1ccc(C#Cc2cccc(C(C)N(O)C(N)=O)c2)cc1OC` (stereo not drawn) [Example 10b, N-Hydroxy-N-{1-[3-(3,4-dimethoxy-phenylethynyl)-phenyl]-ethyl}-urea], for which the IC50 is above 500000 nM on cyclooxygenase and 690 nM on 5-lipoxygenase. Moreover, the “Quotient (IC50 cyclooxygenase (B) / 5-lipoxygenase (A))” value at 5-lipoxygenase was above 725. At 21.5 mg/kg the inhibition in vivo in assay [1] was 86%.
As to `COc1ccc(C#Cc2cccc(C(C)N(O)C(C)=O)c2)cc1` (stereo not drawn) [Example 5a], in the assay with bronchoconstriction, the inhibition of bronchoconstriction is recorded as 54%. The IC50 on cyclooxygenase came to 440000 nM. For the same molecule, on 5-lipoxygenase, the IC50 stood at 290 nM and the “Quotient (IC50 cyclooxygenase (B) / 5-lipoxygenase (A))” value worked out at 1517. In assay [1], this molecule showed an inhibition in vivo at 21.5 mg/kg of 75%.
Regarding `COc1ccc(C#Cc2cccc(C(C)N(O)C(N)=O)c2)cc1` (stereo not drawn) [Example 9, N-Hydroxy-N-{1-[3-(4-methoxy-phenylethynyl)-phenyl]-ethyl}-urea], in the assay with bronchoconstriction, the inhibition of bronchoconstriction came out at 67%. Also, in assay [2], the “Inhibition of increase of GPT” value came to 94% and the “Inhibition of increase of SDH” value was found to be 90%. Also, the IC50 at cyclooxygenase turned out to be 100000 nM. At 5-lipoxygenase, the concentration for half-maximal inhibition (IC50) turned out to be 150 nM and the “Quotient (IC50 cyclooxygenase (B) / 5-lipoxygenase (A))” value amounted to 667. Also, the “inhibition of the ex vivo iLTB4-formation” value in assay [1] (10 mg/kg oral) worked out at 86%.
